Patent US9156816B2 (priority 2010, dated 2015)

Key:
[1] = tested on: tomato late blight pathogen (Phytophthora infestans); assay: whole plant or invertebrate; format: in vivo; settings: 96 h, read-out: control value
[2] = tested on: Pythium aphanidermatum; assay: Antimicrobial test (mycelia growth inhibition); format: cell-based; settings: compound concentration of 1 ppm, PSY medium, 25° C., days 3 to 7 of culturing, read-out: mycelia growth inhibition rate
Experimental: The compound according to the present invention was dissolved in dimethylsulfoxide and diluted to double the prescribed concentration in a 96-well microplate using PSY medium to obtain a drug solution. On the other hand, a diluted dimethylsulfoxide solution was prepared using PSY medium for use as an untreated group.
A suspension of liquid-cultured test microorganisms (Pythium aphanidermatum) was mixed with an equal volume of the drug solution and cultured in a dark location at 25° C. Mycelia growth was observed on days 3 to 7 of culturing to determine mycelia growth inhibition rates.

[3] = tested on: Pythium ultimum; assay: Cucumber damping-off (PU) control test; format: in vivo; settings: Globisporangium ultimum, 168 h, soil irrigated with 30 ml emulsion at active ingredient concentration of 100 ppm, ratio of healthy seedlings on day 7 after planting vs untreated group
Experimental: 40 ml of sterile soil were placed in plastic cups followed by leveling the surface of the soil. The soil was then irrigated with 30 ml of the aforementioned emulsion of Preparation Example 2 at an active ingredient concentration of 100 ppm. Following irrigation, cucumbers (variety: Sagami Hanjiro) were planted in the soil and covered with 20 ml of contaminated soil (containing Pythium ultimum) from above. The cups were then placed in plastic bags and allowed to stand undisturbed for 3 days in a constant temperature room at 25° C. (dark location […]). Next, the plants were removed from the bags and held in a constant temperature room at 25° C. using a light-dark cycle of 12 hours. On day 7 after planting, the ratios of healthy seedlings were compared between an untreated group and treated group to calculate control effects (control values).

SMILES	pest or weed control at 100 µg/mL [1]	inhibition at 1 ppm [2]	pest or weed control at 100 ppm [3]
CCOC(OCC)C(=O)Nc1cccc(CO/N=C(/c2ccccc2)c2nnnn2C)n1 [a-1]	≥ 70%	≥ 50%	≥ 50%
COC(CC(=O)Nc1cccc(CO/N=C(/c2ccccc2)c2nnnn2C)n1)OC [a-2, (Z)-(1-methyl-1H-tetrazol-5-yl)phenylmethanone-o-[2-(2,2-dimethoxyethanecarbonylamino)pyridin-6-ylmethyl]oxime]	≥ 70%	≥ 50%	≥ 50%
Cn1nnnc1/C(=N\OCc1cccc(NC(=O)C2OCCO2)n1)c1ccccc1 [a-4]	≥ 70%	≥ 50%	≥ 50%
Cn1nnnc1/C(=N\OCc1cccc(NC(=O)C2(C)OCCO2)n1)c1ccccc1 [a-5]	–	≥ 50%	–
CCOC(CC(=O)Nc1cccc(CO/N=C(/c2ccccc2)c2nnnn2C)n1)OCC [a-6]	≥ 70%	≥ 50%	≥ 50%
Cn1nnnc1/C(=N\OCc1cccc(NC(=O)CC2OCCO2)n1)c1ccccc1 [a-7]	≥ 70%	≥ 50%	≥ 50%
CC(C)OC(OC(C)C)C(=O)Nc1cccc(CO/N=C(/c2ccccc2)c2nnnn2C)n1 [a-8]	≥ 70%	–	≥ 50%
CCCOC(OCCC)C(=O)Nc1cccc(CO/N=C(/c2ccccc2)c2nnnn2C)n1 [a-9]	≥ 70%	≥ 50%	≥ 50%
CC1COC(CC(=O)Nc2cccc(CO/N=C(/c3ccccc3)c3nnnn3C)n2)O1 (stereo not shown) [a-10]	≥ 70%	≥ 50%	–
CCC1COC(CC(=O)Nc2cccc(CO/N=C(/c3ccccc3)c3nnnn3C)n2)O1 (stereo not shown) [a-11]	≥ 70%	≥ 50%	–
CC1OC(CC(=O)Nc2cccc(CO/N=C(/c3ccccc3)c3nnnn3C)n2)OC1C (stereo not shown) [a-12]	≥ 70%	≥ 50%	–
CC(C(=O)Nc1cccc(CO/N=C(/c2ccccc2)c2nnnn2C)n1)C1(C)OCCO1 (stereo not shown) [a-13]	≥ 70%	–	–
Cn1nnnc1/C(=N\OCc1cccc(NC(=O)CC2OCC(C)(C)CO2)n1)c1ccccc1 [a-15]	≥ 70%	≥ 50%	–
Cn1nnnc1/C(=N\OCc1cccc(NC(=O)CC2(C)OCCO2)n1)c1ccccc1 [a-16]	≥ 70%	–	–
COC(CCC(=O)Nc1cccc(CO/N=C(/c2ccccc2)c2nnnn2C)n1)OC [a-17]	≥ 70%	≥ 50%	≥ 50%
CCOC(C)(OCC)C(=O)Nc1cccc(CO/N=C(/c2ccccc2)c2nnnn2C)n1 [a-18]	≥ 70%	–	≥ 50%
COC(C)(OC)C(=O)Nc1cccc(CO/N=C(/c2ccccc2)c2nnnn2C)n1 [a-19]	≥ 70%	≥ 50%	–
CCOC(OCC)C(C)C(=O)Nc1cccc(CO/N=C(/c2ccccc2)c2nnnn2C)n1 (stereo not shown) [a-20]	≥ 70%	≥ 50%	≥ 50%
CCOC(OCC)C(C)(C)C(=O)Nc1cccc(CO/N=C(/c2ccccc2)c2nnnn2C)n1 [a-21]	≥ 70%	–	≥ 50%
CCSC(SCC)C(=O)Nc1cccc(CO/N=C(/c2ccccc2)c2nnnn2C)n1 [a-22]	≥ 70%	≥ 50%	≥ 50%
Cn1nnnc1/C(=N\OCc1cccc(NC(=O)C2SCCCS2)n1)c1ccccc1 [a-23]	≥ 70%	≥ 50%	≥ 50%
Cn1nnnc1/C(=N\OCc1cccc(NC(=O)C2(C)OCCCO2)n1)c1ccccc1 [a-24, (Z)-(1-methyl-1H-tetrazol-5-yl)phenylmethanone-o-[2-(2-methyl-1,3-dioxan-2-yl-carbonylamino)pyridin-6-ylmethyl]oxime]	≥ 70%	≥ 50%	–
Cn1nnnc1/C(=N\OCc1cccc(NC(=O)C2(C)OCCCCO2)n1)c1ccccc1 [a-25]	≥ 70%	≥ 50%	≥ 50%
CCOC(SCC)C(=O)Nc1cccc(CO/N=C(/c2ccccc2)c2nnnn2C)n1 (stereo not shown) [a-26]	≥ 70%	≥ 50%	≥ 50%
Cn1nnnc1/C(=N\OCc1cccc(NC(=O)C2(C)OCCCCCO2)n1)c1ccccc1 [a-27]	≥ 70%	≥ 50%	≥ 50%
Cn1nnnc1/C(=N\OCc1cccc(NC(=O)C2(C)OCCOCCO2)n1)c1ccccc1 [a-28]	≥ 70%	≥ 50%	≥ 50%
CCCOC(C)(OCCC)C(=O)Nc1cccc(CO/N=C(/c2ccccc2)c2nnnn2C)n1 [a-29]	≥ 70%	≥ 50%	≥ 50%

SMILES	pest or weed control at 100 µg/mL [1]	inhibition at 1 ppm [2]	pest or weed control at 100 ppm [3]
CCOC(C)(OCC(F)(F)F)C(=O)Nc1cccc(CO/N=C(/c2ccccc2)c2nnnn2C)n1 (stereo not shown) [a-30]	≥ 70%	≥ 50%	≥ 50%
CCOC(C)(OCCOC)C(=O)Nc1cccc(CO/N=C(/c2ccccc2)c2nnnn2C)n1 (stereo not shown) [a-31]	≥ 70%	≥ 50%	≥ 50%
COCCOC(C)(OCCOC)C(=O)Nc1cccc(CO/N=C(/c2ccccc2)c2nnnn2C)n1 [a-32]	≥ 70%	–	–
COCCC(=O)Nc1cccc(CO/N=C(/c2ccccc2)c2nnnn2C)n1 [b-1]	≥ 70%	≥ 50%	–
COC(C)C(=O)Nc1cccc(CO/N=C(/c2ccccc2)c2nnnn2C)n1 (stereo not shown) [b-4]	–	≥ 50%	–
CCOCC(C)(COCC)C(=O)Nc1cccc(CO/N=C(/c2ccccc2)c2nnnn2C)n1 [b-5]	–	≥ 50%	–
COCCC(C)C(=O)Nc1cccc(CO/N=C(/c2ccccc2)c2nnnn2C)n1 (stereo not shown) [b-9]	–	–	≥ 50%
COCCCCC(=O)Nc1cccc(CO/N=C(/c2ccccc2)c2nnnn2C)n1 [b-11]	–	–	≥ 50%
Cn1nnnc1/C(=N\OCc1cccc(NC(=O)OCCC2OCC(C)(C)CO2)n1)c1ccccc1 [c-1]	≥ 70%	≥ 50%	≥ 50%
Cn1nnnc1/C(=N\OCc1cccc(NC(=O)OCC2(C)COCOC2)n1)c1ccccc1 [c-2]	≥ 70%	≥ 50%	–
Cn1nnnc1/C(=N\OCc1cccc(NC(=O)OCC2(C)COC(C)(C)OC2)n1)c1ccccc1 [c-3]	≥ 70%	≥ 50%	–
Cn1nnnc1/C(=N\OCc1cccc(NC(=O)OC2CCC3(CC2)OCCO3)n1)c1ccccc1 [c-5]	≥ 70%	≥ 50%	≥ 50%
COC(CC(C)OC(=O)Nc1cccc(CO/N=C(/c2ccccc2)c2nnnn2C)n1)OC (stereo not shown) [c-6]	≥ 70%	≥ 50%	≥ 50%
CC(OC(=O)Nc1cccc(CO/N=C(/c2ccccc2)c2nnnn2C)n1)C1OCCCO1 (stereo not shown) [c-11]	≥ 70%	≥ 50%	–
Cn1nnnc1/C(=N\OCc1cccc(NC(=O)OC(C)(C)C2OCCCO2)n1)c1ccccc1 [c-12]	≥ 70%	≥ 50%	–
CCOC1(OC(=O)Nc2cccc(CO/N=C(/c3ccccc3)c3nnnn3C)n2)CC1 [d-2]	≥ 70%	–	–
Cn1nnnc1/C(=N\OCc1cccc(NC(=O)OCC2CO2)n1)c1ccccc1 (stereo not drawn) [d-5]	≥ 70%	–	–
Cn1nnnc1/C(=N\OCc1cccc(NC(=O)OC2(C)CCOCC2)n1)c1ccccc1 [d-6]	≥ 70%	≥ 50%	–
Cn1nnnc1/C(=N\OCc1cccc(NC(=O)OC2(C)CCSCC2)n1)c1ccccc1 [d-7]	≥ 70%	–	–
CCOCCCC(C)(C)OC(=O)Nc1cccc(CO/N=C(/c2ccccc2)c2nnnn2C)n1 [d-9]	≥ 70%	≥ 50%	–
COCCC(C)(C)OC(=O)Nc1cccc(CO/N=C(/c2ccccc2)c2nnnn2C)n1 [d-10]	≥ 70%	–	≥ 50%
COCCCCOC(=O)Nc1cccc(CO/N=C(/c2ccccc2)c2nnnn2C)n1 [d-11]	≥ 70%	≥ 50%	–
COCCCOC(=O)Nc1cccc(CO/N=C(/c2ccccc2)c2nnnn2C)n1 [d-12]	≥ 70%	≥ 50%	–
CCOC(OCC)C(=O)Nc1cccc(CO/N=C(/c2cccc(F)c2)c2nnnn2C)n1 [e-1]	≥ 70%	≥ 50%	–
CCOC(OCC)C(=O)Nc1cccc(CO/N=C(/c2ccc(F)c(C)c2)c2nnnn2C)n1 [e-2]	≥ 70%	≥ 50%	–
CCOC(OCC)C(=O)Nc1ccc(Cl)c(CO/N=C(/c2ccccc2)c2nnnn2C)n1 [e-3]	≥ 70%	≥ 50%	–
